This note sets out measurements from patent US5795890A, “Sulfonamide derivatives” (ONO Pharmaceutical Co., Ltd., priority 1995, dated 1998).

Counter-ions that a name gives are not always drawn.

The target in test [1] is T1, human polymorphonuclear elastase (HSE) (Homo sapiens, UniProt P08246).
T1 sequence (P08246 30-267): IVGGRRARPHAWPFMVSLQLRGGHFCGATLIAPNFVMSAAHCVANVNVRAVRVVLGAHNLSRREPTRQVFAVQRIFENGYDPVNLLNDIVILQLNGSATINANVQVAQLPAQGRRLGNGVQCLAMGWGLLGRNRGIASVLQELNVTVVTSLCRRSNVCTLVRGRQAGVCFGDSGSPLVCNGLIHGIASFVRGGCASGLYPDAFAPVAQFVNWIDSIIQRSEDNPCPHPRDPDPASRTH
As to the kind of experiment: Inhibitory effects on human polymorphonuclear elastase. It counts as biochemical. To be noted: substrate Meo-Suc-Ala-Ala-Pro-Val-pNA; HEPES pH 8.0; preincubation 37° C. 20 min, incubation 5 min. As for the experimental part:
(1) Inhibitory effects on human polymorphonuclear elastase
A mixture with 0.5 ml of 0.2 mM HEPES buffer (pH 8.0), 0.2 ml of 2.5M NaCl, 0.1 ml of 1% polyethyleneglycol 6000, 0.13 ml of distilled water, test compound dissolved in 0.01 ml of dimethylsulfoxide (DMSO) and 0.05 ml of 0.8 Unit/ml human polymorphonuclearelastase (HSE) was preincubated at 37° C. for 20 min. 5 mM of Meo-Suc-Ala-Ala-Pro-Val-pNA (DMSO solution, 0.01 ml) was then added to the above mixture and was incubated at 37° C. for 5 min. The reaction was terminated by 0.1 ml of 50% acetic acid and the p-nitroanilide (pNA) released was measured spectrophotometrically at […]. Percent inhibition of a compound was calculated by the following equation.
Inhibition (%)=1-{derlat OD(test-blank)/deltaOD(control-blank)}×100

For test [2], the system named is human polymorphonuclear elastase-induced lung hemorrhage. Kind of test: Inhibitory effects on human polymorphonuclear elastase-induced lung hemorrhage in hamster. To be noted: oral, 60 min before intratracheal HSE 10 U/0.1 ml, blood in BALF; for ED50: Homo sapiens, Syrian hamsters; for inhibition at 500 mg/kg (%): 5 Syrian hamsters per group. Format: in vivo, Syrian hamster. Here is the method:
(2) Inhibitory effects on human polymorphonuclear elastase-induced lung hemorrhage in hamster
A test compound suspended in 0.5% Carboxymethylcellulose or 80% Polyethyleneglycol, 400 or 2% Tween 80 was administered orally to a group of 5 Syrian hamsters. At 60 min after the administration, 10 U/0.1 ml of HSE was injected intratracheally via surgically exposed trachea under pentobarbital anesthesia (60 mg/kg, i.p.) to induce lung injury. At 60 min after the injection, hamsters were bled to sacrifice and subjected to bronchoalveolar lavage with 2.5 ml of saline and recovered lavage solution (BALF). The recovered BALF (0.5 ml) was diluted by 4 times with 2% aqueous solution sodium carbonate and sonicated for 10 sec. The lavage fluid was further diluted by 2.5 times with 2% aqueous solution sodium carbonate and the amount of blood in BALF was calculated from absorbance at 414 nm using standard curve.

On to `CC[C@H](C(=O)Oc1ccc(S(=O)(=O)N2CCc3cc([N+](=O)[O-])ccc32)cc1C)c1ccc(N2CCCC2)cc1` [Example 1(130), 4-(5-nitroindolin-1-ylsulfonyl)-2-methylphenyl 2S-(4-(pyrrolidin-1-yl)phenyl)butanoic acid ester], for which the IC50 in test [1] turned out to be 22 nM.

Consider `CCC(C(=O)Oc1ccc(S(=O)(=O)NCC(N)=O)cc1)c1ccc(N2CCCC2)cc1` (racemic) [Example 1(56), 4-(N-(carbamoylmethyl)sulfamoyl)phenyl 2RS-(4-(pyrrolidin-1-yl)phenyl)butanoic acid ester], for which half-maximal inhibition in test [1] (IC50) was put at 14 nM.

For `CCC(C(=O)Oc1ccc(S(=O)(=O)N2CCC[C@H]2C(=O)O)cc1)c1ccc(N2CCCC2)cc1` (stereo partly drawn) [Example 2(1), 4-(2S-carboxypyrrolidin-1-ylsulfonyl)phenyl 2RS-(4-(pyrrolidin-1-yl)phenyl)butanoic acid ester.hydrochloride], the midpoint of inhibition in test [1], the IC50, lay at 12 nM.

In test [1], `CCc1cc(S(=O)(=O)N2CCNCC2)ccc1OC(=O)[C@@H](CC)c1ccc(N2CCCC2)cc1` [Example 2(274), 4-(piperazin-4-ylsulfonyl)-2-ethylphenyl 2S-(4-(pyrrolidin-1-yl)phenyl)butanoic acid ester.2hydrochloride] gave an IC50 of 12 nM. The molecule further gave an ED50 in test [2] of 132 mg/kg.

The molecule `O=C(O)CNC(=O)c1ccccc1NS(=O)(=O)c1ccc(OC(=O)C2(c3ccc([N+](=O)[O-])cc3)CCC2)cc1` [2(179), 4-(N-2-(N'-carboxymethylcarbamoyl)phenylsulfamoyl)phenyl 1-(4-nitrophenyl)cyclobutanecarboxylic acid ester] displayed an IC50 in test [1] of 49 nM.

Regarding `CCC(C(=O)Oc1ccc(S(=O)(=O)N2CCOCC2)cc1)c1ccc(N2CCCC2)cc1` (racemic) [Example 1(16), 4-(morpholin-4-ylsulfonyl)phenyl 2RS-(4-(pyrrolidin-1-yl)phenyl)butanoic acid ester], the IC50 in test [1] worked out at 17 nM.

`CCC(C(=O)Oc1ccc(S(=O)(=O)Nc2ccccc2C(=O)NCC(=O)O)cc1)c1ccc2c(c1)OCO2` (racemic) [2(120), 4-(N-2-(N'-carboxymethylcarbamoyl)phenylsulfamoyl)phenyl 2RS-(1,3-benzodioxol-5-yl)butanoic acid ester] registered a concentration for half-maximal inhibition (IC50) in test [1] of 23 nM.

In turn, `CCC(C(=O)Oc1ccc(S(=O)(=O)N2CSC[C@H]2C(=O)O)cc1)c1ccc(N2CCCC2)cc1` (stereo partly drawn) [2(77), 4-(4S-carboxyperhydrothiazol-3-ylsulfonyl)phenyl 2RS-(4-(pyrrolidin-1-yl)phenyl)butanoic acid ester.hydrochloride] displayed an IC50 in test [1] of 18 nM.

Take `CCC(C(=O)Oc1ccc(S(=O)(=O)NC2CN3CCC2CC3)cc1C)c1ccc(N2CCCC2)cc1` (racemic) [Example 1(90), 4-(N-(quinuclidin-3RS-yl)sulfamoyl)-2-methylphenyl 2RS-(4-(pyrrolidin-1-yl)phenyl)butanoic acid ester]: the “inhibition at 500 mg/kg (%)” value in test [2] stood at 65%.

In the case of `CCC(C(=O)Oc1ccc(S(=O)(=O)N2CCC[C@H]2C(=O)O)cc1C)c1ccc(N2CCCC2)cc1` (stereo partly drawn) [Example 2, 4-(2S-carboxypyrrolidin-1-ylsulfonyl)-2-methylphenyl 2RS-(4-(pyrrolidin-1-yl)phenyl)butanoic acid ester.hydrochloride], inhibition in test [1] was half-maximal at 55 nM (IC50). The “inhibition at 500 mg/kg (%)” value in test [2] came to 81%.

Regarding `CCC(C(=O)Oc1ccc(S(=O)(=O)NCC(O)CO)cc1C)c1ccc(C)cc1` (racemic) [Example 1(68), 4-(N-2RS,3-dihydroxypropylsulfamoyl)-2-methylphenyl 2RS-(4-methylphenyl)butanoic acid ester], the “inhibition at 500 mg/kg (%)” value in test [2] stood at 51%.

In test [1], `CCC(C(=O)Oc1ccc(S(=O)(=O)Nc2ccccc2C(=O)NCC(=O)O)cc1)c1ccc(C)cc1` (racemic) [2(173), 4-(N-2-(N'-carboxymethylcarbamoyl)phenylsulfamoyl)phenyl 2RS-(4-methylphenyl)butanoic acid ester] came in with an IC50 of 14 nM.

In test [1], `CCC(C(=O)Oc1ccc(S(=O)(=O)n2c(C(=O)O)cc3ccccc32)cc1C)c1ccc(C)cc1` (racemic) [2(69), 4-(2-carboxyindol-1-ylsulfonyl)-2-methylphenyl 2RS-(4-methylphenyl)butanoicacid ester] had an IC50 of 11 nM. For the same molecule, in test [2], the “inhibition at 500 mg/kg (%)” value was 83%.

With `CC[C@H](C(=O)Oc1ccc(S(=O)(=O)NCCN2CCOCC2)cc1C)c1ccc(N2CCCC2)cc1` [Example 1(139), 4-(2-(morpholin-4-yl)ethylaminosulfonyl)-2-methylphenyl 2S-(4-(pyrrolidin-1-yl)phenyl)butanoic acid ester.2hydrochloride], inhibition in test [1] was half-maximal at 24 nM (IC50). The 50% effect level in test [2] (ED50) was put at a dose of 192 mg/kg.

The molecule `CCC(C(=O)Oc1ccc(S(=O)(=O)Nc2ccccc2C(=O)NCC(=O)O)cc1)c1ccc(OC)c(OC)c1` (racemic) [2(157), 4-(N-2-(N'-carboxymethylcarbamoyl)phenylsulfamoyl)phenyl 2RS-(3,4-dimethoxyphenyl)butanoic acid ester] had an IC50 in test [1] of 8 nM.

With `CCC(C(=O)Oc1ccc(S(=O)(=O)N2c3ccccc3CC2C(=O)O)cc1)c1ccccc1OC` (racemic) [2(62), 4-(2RS-carboxyindolin-1-ylsulfonyl)phenyl 2RS-(2-methoxyphenyl)butanoic acid ester], in test [1], the IC50 worked out at 6.8 nM.

For the molecule `CCC(C(=O)Oc1ccc(S(=O)(=O)Nc2ccccc2C(=O)NCC(=O)O)cc1)c1ccc(N(C)C)cc1` (racemic) [2(197), 4-(N-2-(N'-carboxymethylcarbamoyl)phenylsulfamoyl)phenyl 2RS-(4-(N,N-dimethylamino)phenyl)butanoic acid ester.hydrochloride], 10 nM corresponded to half-maximal inhibition in test [1] (IC50).

Consider `CCOC(=O)C(CN1CCOCC1)NS(=O)(=O)c1ccc(OC(=O)C(CC)c2ccc(N3CCCC3)cc2)cc1` (racemic) [Example 1(40), 4-(N-1RS-(ethoxycarbonyl)-2-(morpholin-4-yl)ethylsulfamoyl)phenyl 2RS-(4-(pyrrolidin-1-yl)phenyl)butanoic acid ester], for which the IC50 in test [1] stood at 19 nM.

With `CCC(C(=O)Oc1ccc(S(=O)(=O)n2c(C(=O)O)cc3cc(OC)c(OC)cc32)cc1C)c1ccc(N2CCCC2)cc1` (racemic) [2(42), 4-(2-carboxy-5,6-dimethoxyindol-1-ylsulfonyl)-2-methylphenyl 2RS-(4-(pyrrolidin-1-yl)phenyl)butanoic acid ester], half-maximal inhibition in test [1] (IC50) was put at 13 nM. Besides, the “inhibition at 500 mg/kg (%)” value in test [2] amounted to 67%.

Consider `CCC(C(=O)Oc1ccc(S(=O)(=O)NCCc2ccccn2)cc1)c1ccc(N2CCCC2)cc1` (racemic) [Example 1(78), 4-(N-2-(pyridin-2-yl)ethylsulfamoyl)phenyl 2RS-(4-(pyrrolidin-1-yl)phenyl)butanoic acid ester.2hydrochloride], for which the half-maximal inhibitory concentration (IC50) in test [1] stood at 8 nM.

As to `CC[C@H](C(=O)Oc1ccc(S(=O)(=O)N2CCNCC2)cc1C)c1ccc(N2CCCC2)cc1` [Example 2(276), 4-(piperazin-4-ylsulfonyl)-2-methylphenyl 2S-(4-(pyrrolidin-1-yl)phenyl)butanoic acid ester.2hydrochloride], in test [1], it took 9.3 nM to reach half-maximal inhibition (IC50). Besides, it took a dose of 73 mg/kg to reach the 50% effect level in test [2] (ED50).

In test [1], `CCC(C(=O)Oc1ccc(S(=O)(=O)NC23CC4CC(C2)CC(C(=O)O)(C4)C3)cc1)c1ccc(N2CCCC2)cc1` (racemic) [2(111), 4-(N-3-carboxyadamantan-1-ylsulfamoyl)phenyl 2RS-(4-(pyrrolidin-1-yl)phenyl)butanoic acid ester] yielded a half-maximal inhibitory concentration (IC50) of 9.7 nM.

The term IC50 denotes the midpoint of a concentration-inhibition curve. Read a high IC50 as a need for much substance. As usually defined, the ED50 is the midpoint of the dose-response relation. As usually defined, the inhibition is the change of the read-out against control, counted positive when it falls. Low readings indicate a weak effect, high ones a strong effect.
